{"source": "patent US5942547A", "about": "“2-Deoxystreptamine derivatives, pharmaceutical compositions thereof and therapeutic methods using same” (priority 1996, dated 1999)", "origin": "cited, not measured here", "system": "REV/RRE interaction"}
{"compound": "NC[C@@H]1O[C@H](O[C@H]2[C@@H](O)[C@H](O[C@@H]3[C@@H](O)[C@H](N)C[C@H](N)[C@H]3O[C@H]3O[C@H](CN)[C@@H](O)[C@H](O)[C@H]3N)O[C@@H]2CO)[C@H](N)[C@@H](O)[C@@H]1O", "note": "[neomycin B]", "values": [{"measurement": "disruption of the REV/RRE interaction (in words)", "value": "could disrupt the REV/RRE interaction"}]}
